# PubChem BioAssay AID1963979 (Molecular Pharmacology Branch, DTP, NCI, 2024)
# System: 361931-004-R-J1-PDC multicell spheroid viability
# Experiment: Anticancer human tumor 361931-004-R-J1-PDC patient-derived colon adenocarcinoma cell line growth inhibition [PI3K]
# Conditions: for IC50: curve of first compound; for viability, T/C: stronger effect = lower value
# Description: Combinatorial screen of targeted agents with the PI3K inhibitors inavolisib, alpelisib, duvelisib, and copanlisib in multi-cell type tumor spheroids
# A high-throughput screen of multi-cell type tumor spheroids was designed to identify active combinations of targeted small molecules and PI3K pathway inhibitors. Complex spheroids include a stromal component modeled by human endothelial cells (HUVEC) and fibroblasts modeled by human mesenchymal stem cells (MSCs). The concentration ranges selected for each drug and investigational agent were based upon clinically achievable concentrations if the clinical Cmax of the agent was known.
# Compounds. The drugs and investigational agents: inavolisib (NSC800729), alpelisib (NSC765974), duvelisib (NSC772469), copanlisib (NSC816437), ipatasertib (NSC767898), afuresertib (NSC778305), talazoparib (NSC767125), sapanisertib (NSC764658), selumetinib (NSC741078), tovorafenib (DAY101, NSC766906), vemurafenib (NSC761431), ravoxertinib (NSC781343), sotorasib (NSC818433), MRTX1133 (NSC 836407), abemaciclib (NSC 768073), palbociclib (NSC758247), venetoclax (NSC 766270), SY5609 (NSC837396), enzalutamide (NSC755605), and darolutamide (NSC825331), were obtained from the National Cancer Institute (NCI) Developmental Therapeutics Program Chemical Repository. The FDA-approved anticancer drug set is available from the NCI Developmental Therapeutics Program. […] The stock solutions were prepared in dimethyl sulfoxide (DMSO, Sigma-Aldrich, St. Louis, MO, cat. D2650) at 800-fold the tested concentration and stored at -70 degrees C prior to their use. All drugs and investigational agents were tested over a range starting from a high concentration at or near the clinical Cmax and decreasing in half-log increments. If the clinical Cmax for an agent had not been determined, the highest concentration tested was 10 microM.
# Cell Culture. All cells were maintained in an incubator at 37 degrees C and 5% CO2 with 95% humidity. The PDC lines were cultured according to standard operating procedures established by the NCI PDMR (https://pdmr.cancer.gov/sops/default.htm). All PDCs were thawed and cultured in Matrigel-coated flasks prepared with a working solution of 1X Ham's F-12 nutrient mix, without supplementation (Invitrogen, Waltham, MA, cat. 11765054), 100 U/mL penicillin-streptomycin (Invitrogen, cat. 15140122), and 2.5% Matrigel (Corning Inc., Corning, NY, cat. 354248) for the first three passages. The 354836-022-R-J1-PDC, 475296-252-R-J1-PDC, and 997726-040-R-J2-PDC lines were cultured in 6A media, which includes advanced DMEM/F-12 (Thermo Fisher Scientific, cat. 12634028), 10 mM HEPES (Thermo Fisher Scientific, cat. 15630080), 1X GlutaMAX supplement (Thermo Fisher Scientific, cat. 35050061), 0.1 mg/mL primocin (InvivoGen, San Diego, CA, cat. ant-pm-2), 10% defined fetal bovine serum, heat inactivated (HyClone Laboratories Inc., Logan, UT, cat. SH30070.03HI), 50% L-WRN conditioned media (ATCC, cat. CRL-3276), 1.25 mM N-Acetyl-L-cysteine (Sigma-Aldrich, cat. A9165), 10 mM nicotinamide (Sigma-Aldrich, cat. N0636), 1X B-27 supplement (Thermo Fisher Scientific, cat. 17504044), 1X N-2 supplement (Thermo Fisher Scientific, cat. 17502048), and 10 microM Y-27632 dihydrochloride (Tocris Bioscience, Bristol, United Kingdom, cat. 1254). The 624824-186-R-J2-PDC line was cultured in 6C/Colon 1B media, which includes all 6A media components plus 50 ng/mL human EGF recombinant protein (Thermo Fisher Scientific, cat. PHG0311). […]
# [1] = second compound 0.0316 µM, first compound 0.0316 µM
# [2] = second compound 0.0316 µM, first compound 0.1 µM
# [3] = second compound 0.0316 µM, first compound 0.316 µM
# [4] = second compound 0.0316 µM, first compound 1 µM
# [5] = second compound 0.1 µM, first compound 0.0316 µM
# [6] = second compound 0.1 µM, first compound 0.1 µM
# [7] = second compound 0.1 µM, first compound 0.316 µM
# [8] = second compound 0.1 µM, first compound 1 µM
# [9] = second compound 0.316 µM, first compound 0.0316 µM
# [10] = second compound 0.316 µM, first compound 0.1 µM
# [11] = second compound 0.316 µM, first compound 0.316 µM
# [12] = second compound 0.316 µM, first compound 1 µM
# [13] = second compound 1 µM, first compound 0.0316 µM
# [14] = second compound 1 µM, first compound 0.1 µM
# [15] = second compound 1 µM, first compound 0.316 µM
# [16] = second compound 1 µM, first compound 1 µM
# 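Note: spheroids exposed to agents for seven days before readout.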
smiles,measurement,setting,value
CCN1CCN(Cc2ccc(Nc3ncc(F)c(-c4cc(F)c5nc(C)n(C(C)C)c5c4)n3)nc2)CC1 + COc1c(OCCCN2CCOCC2)ccc2c3n(c(=NC(=O)c4cnc(N)nc4)nc12)CCN3,IC50,second compound 0.00316 µM,> 1 µM
same,IC50,second compound 0.01 µM,> 1 µM
same,IC50,second compound 0.0316 µM,0.864 µM
same,IC50,second compound 0.1 µM,0.223 µM
same,IC50,second compound 0.316 µM,< 0.00316 µM
same,IC50,second compound 1 µM,< 0.00316 µM
same,"viability, T/C","second compound 0.00316 µM, first compound 0.00316 µM",92.3%
same,"viability, T/C","second compound 0.00316 µM, first compound 0.01 µM",101%
same,"viability, T/C","second compound 0.00316 µM, first compound 0.0316 µM",103%
same,"viability, T/C","second compound 0.00316 µM, first compound 0.1 µM",103%
same,"viability, T/C","second compound 0.00316 µM, first compound 0.316 µM",94.6%
same,"viability, T/C","second compound 0.00316 µM, first compound 1 µM",87.6%
same,"viability, T/C","second compound 0.01 µM, first compound 0.00316 µM",100%
same,"viability, T/C","second compound 0.01 µM, first compound 0.01 µM",95.1%
same,"viability, T/C","second compound 0.01 µM, first compound 0.0316 µM",94.4%
same,"viability, T/C","second compound 0.01 µM, first compound 0.1 µM",85%
same,"viability, T/C","second compound 0.01 µM, first compound 0.316 µM",77.2%
same,"viability, T/C","second compound 0.01 µM, first compound 1 µM",64.5%
same,"viability, T/C","second compound 0.0316 µM, first compound 0.00316 µM",86.7%
same,"viability, T/C","second compound 0.0316 µM, first compound 0.01 µM",91.3%
same,"viability, T/C",[1],80.7%
same,"viability, T/C",[2],73.5%
same,"viability, T/C",[3],62.3%
same,"viability, T/C",[4],48.1%
same,"viability, T/C","second compound 0.1 µM, first compound 0.00316 µM",80.8%
same,"viability, T/C","second compound 0.1 µM, first compound 0.01 µM",74.3%
same,"viability, T/C",[5],60.3%
same,"viability, T/C",[6],54.3%
same,"viability, T/C",[7],51.2%
same,"viability, T/C",[8],39.9%
same,"viability, T/C","second compound 0.316 µM, first compound 0.00316 µM",50%
same,"viability, T/C","second compound 0.316 µM, first compound 0.01 µM",44.7%
same,"viability, T/C",[9],43.2%
same,"viability, T/C",[10],39.7%
same,"viability, T/C",[11],39%
same,"viability, T/C",[12],39.9%
same,"viability, T/C","second compound 1 µM, first compound 0.00316 µM",22.7%
same,"viability, T/C","second compound 1 µM, first compound 0.01 µM",21.8%
same,"viability, T/C",[13],18.7%
same,"viability, T/C",[14],22.2%
same,"viability, T/C",[15],30.3%
same,"viability, T/C",[16],32.1%
CC1(C)CCC(Nc2ncc(C(F)(F)F)c(-c3c[nH]c4c(P(C)(C)=O)c(C#N)ccc34)n2)CN1 (centres undefined) + CC(Nc1ncnc2nc[nH]c12)c1cc2cccc(Cl)c2c(=O)n1-c1ccccc1,IC50,second compound 0.0316 µM,6.27 µM
same,IC50,second compound 0.1 µM,5.92 µM
same,IC50,second compound 0.316 µM,5.95 µM
same,IC50,second compound 1 µM,5.58 µM
same,IC50,second compound 3.16 µM,5.2 µM
same,IC50,second compound 10 µM,4.73 µM
same,"viability, T/C",[1],106%
same,"viability, T/C",[2],108%
same,"viability, T/C",[3],104%
same,"viability, T/C",[4],101%
same,"viability, T/C","second compound 0.0316 µM, first compound 3.16 µM",103%
same,"viability, T/C","second compound 0.0316 µM, first compound 10 µM",13.7%
same,"viability, T/C",[5],122%
same,"viability, T/C",[6],103%
same,"viability, T/C",[7],96%
same,"viability, T/C",[8],101%
same,"viability, T/C","second compound 0.1 µM, first compound 3.16 µM",93.4%
same,"viability, T/C","second compound 0.1 µM, first compound 10 µM",14.5%
same,"viability, T/C",[9],108%
same,"viability, T/C",[10],106%
same,"viability, T/C",[11],99.4%
same,"viability, T/C",[12],98%
same,"viability, T/C","second compound 0.316 µM, first compound 3.16 µM",95.8%
same,"viability, T/C","second compound 0.316 µM, first compound 10 µM",12.4%
same,"viability, T/C",[13],110%
same,"viability, T/C",[14],101%
same,"viability, T/C",[15],98.8%
same,"viability, T/C",[16],98.4%
same,"viability, T/C","second compound 1 µM, first compound 3.16 µM",86.9%
same,"viability, T/C","second compound 1 µM, first compound 10 µM",12.8%
same,"viability, T/C","second compound 3.16 µM, first compound 0.0316 µM",105%
same,"viability, T/C","second compound 3.16 µM, first compound 0.1 µM",94.9%
same,"viability, T/C","second compound 3.16 µM, first compound 0.316 µM",95.8%
same,"viability, T/C","second compound 3.16 µM, first compound 1 µM",94.1%
same,"viability, T/C","second compound 3.16 µM, first compound 3.16 µM",80.6%
same,"viability, T/C","second compound 3.16 µM, first compound 10 µM",10.6%
same,"viability, T/C","second compound 10 µM, first compound 0.0316 µM",93.1%
same,"viability, T/C","second compound 10 µM, first compound 0.1 µM",90.8%
same,"viability, T/C","second compound 10 µM, first compound 0.316 µM",88.9%
same,"viability, T/C","second compound 10 µM, first compound 1 µM",88%
same,"viability, T/C","second compound 10 µM, first compound 3.16 µM",74%
same,"viability, T/C","second compound 10 µM, first compound 10 µM",5.6%
